The values that follow come from article PMC6272905, “In Vitro and In Vivo Characterization of Selected Fluorine-18 Labeled Radioligands for PET Imaging of the Dopamine D3 Receptor” (Molecules, 2016).

Several values for one entry are separate records, joined by “and”; a condition that tells them apart may be missing. Identical values can stand only once.

By Kd is commonly meant the equilibrium constant for the complex coming apart. The low end stands for higher affinity, the high end for lower affinity. What is called Ki is the dissociation constant of the complex between target and ligand, obtained from inhibition or displacement.

The nature of data set [1]: Free fraction in rat plasma. In kind it is in vitro ADME. The following applies: rat plasma, Figure 3b. The method, then: The free fraction in vitro was determined by adding the respective radioligand (100 kBq) to plasma or CSF (200 µL) and mixed vigorously. Aliquots of 20–50 µL were transferred to size exclusion chromatography columns (MicroSpin G-50; GE Healthcare GmbH, Solingen, Germany, centrifuged for two min at 2000 rpm, and the radioactivity in the filtrate and in the resin were measured in the gamma-counter. Three independent experiments were performed in triplicates.
For the ex vivo determination of the radioligands binding to proteins the respective tracer (15 MBq) was administered intravenous to male Sprague Dawley rats (200–250 g) under isoflurane anesthesia. Blood samples were drawn intravenous after 5, 15 and 30 min and centrifuged for 5 min at 2000 rpm in heparin-coated vials. An aliquot of 50 µL was taken from the supernatant and added to an equal volume of water (10% TFA). The protein precipitate was centrifuged off for 5 min at 25,000 rpm and analyzed together with a further 50 µL aliquot of the supernatant in the gamma-counter. Two independent experiments were performed.

Data set [2] concerns the target T1, P-gp (Homo sapiens, UniProt P08183).
T1 construct: endogenous in cells; host or cells: Caco-2
The data set is described as follows: P-gp inhibition assay (cellular uptake) in Caco-2 cells. In kind it is cell-based. The method, then:
(§1) EA.hy926 cells were seeded in culture medium at confluency the day prior to experiment or in case of the Caco-2 cells two days prior to experiment in 24-multiwell plates (Greiner Bio-One International GmbH, Kremsmünster, Austria). On the day of the experiment the culture medium was removed and the cells were washed once with PBS (500 µL). Culture medium supplemented with cyclosporine-A (5 µM for EA.hy926 and 10 µM for Caco-2) was added and the cells were incubated at 37 °C for 30 min. Afterwards 1 MBq of [^18F]2b was added to each well and incubated for further 30, 60 and 90 min. After incubation cells were washed with ice cold PBS (500 µL) and lysated with 0.1 M NaOH. The medium and lysates were analysed in the gamma-counter. To identify cyclosporine-A induced accumulation the experiment was also performed using culture medium lacking cyclosporine-A. As positive control the experiment was performed with ^99mTc-MIBI (100 kBq/well), a known P-gp substrate. To determine the lowermost concentration with which a maximum effect was obtained, cyclosporine-A was applied in a range of 0–50 µM and observed in a time frame of 30–120 min for both cell lines.

Data set [3] deals with T1, P-gp. As to the kind of experiment: P-gp inhibition assay (cellular uptake) in EA.hy926 cells. In kind it is cell-based. The method, then: as §1
The target of the next data set is T2, D3 receptor in rat brain (Rattus norvegicus, UniProt P19020).
T2 construct: from tissue; host or cells: brain cryosections (12 µm) of male Wistar rats
T2 sequence (P19020 whole entry): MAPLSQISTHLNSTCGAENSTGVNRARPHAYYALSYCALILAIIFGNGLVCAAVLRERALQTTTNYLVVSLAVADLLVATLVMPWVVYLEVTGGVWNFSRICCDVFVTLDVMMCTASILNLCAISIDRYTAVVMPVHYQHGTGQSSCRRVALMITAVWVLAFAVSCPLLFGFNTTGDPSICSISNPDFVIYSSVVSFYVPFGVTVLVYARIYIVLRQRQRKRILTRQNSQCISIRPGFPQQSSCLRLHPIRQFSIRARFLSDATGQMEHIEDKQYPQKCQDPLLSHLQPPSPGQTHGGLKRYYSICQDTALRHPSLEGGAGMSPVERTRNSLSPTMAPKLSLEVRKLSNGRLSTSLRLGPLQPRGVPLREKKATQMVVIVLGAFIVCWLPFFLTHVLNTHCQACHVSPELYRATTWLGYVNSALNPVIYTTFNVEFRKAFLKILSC
As to the kind of experiment: Saturation binding assay on rat brain sections. The following applies: for Bmax: rat brain sections, n = 4.

On the set-up of data set [4]: method as in PMID 24339325, PMID 26707848. The following applies: over 120 min, previously reported; cited from earlier work.
On the set-up of data set [5]: method as in PMID 24339325, PMID 26707848. As to conditions: experimental, pH 7.4, n = 6, previously reported; cited from earlier work.
Data set [6] concerns the target T1, P-gp. The data set is described as follows: Bi-directional transport assay in Caco-2 cells. In kind it is cell-based. The method, then: The procedure of initially adding equal concentrations to both compartments was adapted from the literature. Caco-2 cells were seeded near confluency in thin-cert inserts (translucent, Ø 0.4 µm, 24 well PET membrane, Greiner) and placed in multiwell plates (CELLSTAR 24 Multiwell plates, Greiner). The culture medium basolateral (multiwell) and apical (insert) was renewed every 2–3 days. Approximately 12 days after seeding the Caco-2 cells reached their highest trans-epithelial resistance, which was monitored every four days and on day of the experiment. An immunocytochemistry was also performed with an additional insert (translucent) to confirm stable formation of tight-junctions and cell monolayer. Culture medium was then removed and the cells were washed with PBS. Culture medium supplemented with cyclosporin (10 µM) was added to both compartments and the cells were incubated at 37 °C for 30 min. Afterwards 1 MBq [^18F]2b was added to each compartment. An aliquot was taken from each compartment after 0, 30, 60 and 90 min and analyzed in the gamma-counter. To identify cyclosporine-A induced accumulation the experiment was also performed using culture medium lacking cyclosporine-A. As positive control the experiment was performed with ^99mTc-MIBI (100 kBq/ compartment).

For data set [7], the target named is D3 receptor. As to conditions: cited from earlier work.
Data set [8] deals with T3, D3 receptor (Rattus norvegicus, UniProt P19020).
T3 construct: In vitro autoradiography of coronal rat brain sections after incubation with the respective radioligand; from tissue; host or cells: coronal brain cryosections (20 µm) of male Sprague Dawley rats
T3 sequence (P19020 whole entry): as above
As to the kind of experiment: In vitro autoradiography of coronal rat brain sections. In kind it is binding. As to conditions: displacement with BP897. The method, then:
Male Sprague Dawley rats (200–250 g) were sacrificed by decapitation under deep isoflurane anesthesia and brains were removed and frozen in cooled hexane at −70 °C. Coronal brain sections (20 µm) were cut on a cryostat microtome (HM550, Microm-Thermo Fisher Scientific, Walldorf, Germany) and thaw-mounted on covered glass slides (Histobond®, Marienfeld, Lauda Königshofen, Germany). The thaw mounted sections were stored at −20 °C up to 14 days.
The cryostat sections were pre-incubated for 15 min in incubation buffer (50 mM Tris-HCl, 40 mM NaCl, pH 7.4) at room temperature. The sections were then placed in incubation buffer containing 5 MBq of the respective tracer. For displacement studies BP897 (50 nM or 1 µM) was added. The sections were incubated at room temperature for 45 min and afterwards washed in ice cold incubation buffer for 3 × 5 min. Subsequently, they were dipped in water and after drying placed on a phosphor imaging screen (Fujitsu, Berlin, Germany) over night. The screens were analyzed with a DUERR Medical HD-CR 35 Bio (Raytest, Straubenhardt, Germany) and evaluated using the software AIDA image analyzer (Raytest). For anatomical identification of brain regions, the sections were compared with figures in the rat brain atlas.

Where [9] appears, read: Caco-2, absence of cyclosporin-A, up to 90 min.

T1 sequence (P08183 whole entry): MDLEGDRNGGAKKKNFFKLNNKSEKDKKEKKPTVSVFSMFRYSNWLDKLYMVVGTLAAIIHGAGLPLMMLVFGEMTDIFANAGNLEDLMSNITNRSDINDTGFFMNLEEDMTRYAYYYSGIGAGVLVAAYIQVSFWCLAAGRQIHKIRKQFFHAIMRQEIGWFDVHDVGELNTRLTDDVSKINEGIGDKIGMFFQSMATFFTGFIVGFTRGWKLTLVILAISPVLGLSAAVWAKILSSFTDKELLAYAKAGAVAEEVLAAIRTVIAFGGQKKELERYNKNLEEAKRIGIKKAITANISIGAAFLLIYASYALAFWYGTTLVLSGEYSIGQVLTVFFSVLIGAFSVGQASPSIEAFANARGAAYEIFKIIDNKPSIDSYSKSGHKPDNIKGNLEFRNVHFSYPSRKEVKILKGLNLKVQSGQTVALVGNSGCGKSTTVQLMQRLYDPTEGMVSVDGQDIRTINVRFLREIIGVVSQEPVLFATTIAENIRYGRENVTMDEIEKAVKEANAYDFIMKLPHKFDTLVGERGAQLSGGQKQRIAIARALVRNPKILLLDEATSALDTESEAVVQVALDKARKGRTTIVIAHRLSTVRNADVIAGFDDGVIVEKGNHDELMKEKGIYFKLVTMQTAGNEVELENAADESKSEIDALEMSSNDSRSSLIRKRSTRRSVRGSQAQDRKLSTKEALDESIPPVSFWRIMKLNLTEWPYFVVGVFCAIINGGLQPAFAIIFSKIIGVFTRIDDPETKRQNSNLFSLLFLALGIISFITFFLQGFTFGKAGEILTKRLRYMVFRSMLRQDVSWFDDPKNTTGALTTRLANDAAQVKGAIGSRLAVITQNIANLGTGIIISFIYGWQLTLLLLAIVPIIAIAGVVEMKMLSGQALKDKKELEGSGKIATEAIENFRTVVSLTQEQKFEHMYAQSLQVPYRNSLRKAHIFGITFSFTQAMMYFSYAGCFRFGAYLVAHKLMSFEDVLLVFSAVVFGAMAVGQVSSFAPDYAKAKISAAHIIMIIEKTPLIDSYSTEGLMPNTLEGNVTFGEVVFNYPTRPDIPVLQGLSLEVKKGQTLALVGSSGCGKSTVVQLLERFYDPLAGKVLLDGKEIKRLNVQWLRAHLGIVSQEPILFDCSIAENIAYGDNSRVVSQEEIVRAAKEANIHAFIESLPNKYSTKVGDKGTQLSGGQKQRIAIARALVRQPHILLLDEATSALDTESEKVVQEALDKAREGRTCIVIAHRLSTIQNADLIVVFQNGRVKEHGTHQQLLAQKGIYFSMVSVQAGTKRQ

On to `COc1ccccc1N1CCN(CCCCNC(=O)/N=N/c2ccc([18F])cc2)CC1` [[^18F]2b], for which the “free radioligand in rat plasma” value in [1] was 80%. Also, the “percentage inside the cells” value came to 10% at P-gp [2] and 5% at P-gp [3]. The “influence of cyclosporin-A on cellular uptake” value on P-gp [2] (with vs without cyclosporin-A) and at P-gp [3] (with vs without cyclosporin-A) was “did not increase the uptake” throughout. Also, the Kd at D3 receptor in rat brain (all three regions) is about 0.1 nM; at D3 receptor in rat brain (caudate putamen), 0.08 ± 0.06 nM; at D3 receptor in rat brain (islands of calleja), 0.1 ± 0.01 nM; on D3 receptor in rat brain (nucleus accumbens), 0.11 ± 0.07 nM. For the same compound, the Bmax was 16.58 pmol/g and 16.58 ± 1.63 pmol/g at D3 receptor in rat brain (caudate putamen (striatum)); 20.38 pmol/g and 20.38 ± 2.67 pmol/g at D3 receptor in rat brain (islands of calleja); 19.54 pmol/g and 19.54 ± 1.85 pmol/g on D3 receptor in rat brain (nucleus accumbens). For the same compound, the “decomposition in human serum” value in [4] is recorded as “no decomposition was observed”. Besides, the “Log D7.4” value in [5] is 2.10 ± 0.10. The “concentration in the apical compartment, % of the initial concentration” value is on record as 90% on P-gp [6] (setting [9]); 80% at P-gp [6] (Caco-2, presence of cyclosporin-A (^99mTc-MIBI after 60 and 90 min; [^18F]2b after 30 min)). The “concentration in the basolateral compartment, % of the initial concentration” value at P-gp [6] (setting [9]) came to 100%. Moreover, the “concentration in the basolateral compartment” value on P-gp [6] (Caco-2, presence of cyclosporin-A) is “stayed nearly constant”. In addition, on P-gp [6] (conclusion from inhibition and transport assays), the P-gp substrate result is listed as “no P-gp substrate”. In addition, at D3 receptor [7], the Ki is 3.5 nM. Moreover, the “binding pattern in rat brain sections” value at D3 receptor [8] was “D3 specific binding was visible”.
